Test results: patent US10626077B2, “Salvianolic acid compound T, preparation method therefor, and use thereof” (TASLY PHARMACEUTICAL GROUP CO., LTD., priority 2013, dated 2020)

Test system: pituitrin-caused acute myocardial ischemia in rats
Assay: Pituitrin-caused experimental acute myocardial ischemia in rats (ECG J point and T wave)
Assay type: in vivo, SD rats
Design: J point / T wave: unit not given here
Experimental: Administration dose of the (R)-salvianolic acid T lyophilized powder was 10 mg/kg body-weight in high-dose group; 5.0 mg/kg body-weight in low-dose group.
2.1 Screening of Animals: Before formal experiment, rats were injected via vena caudalis with pituitrin (Pit) (1 U/kg). Normal ECG and the ECG of 5 min after injection were recorded to observe J point elevation and T wave abnormality. Animals who had abnormal ECG before injection or who were insensitive to Pit were rejected.
2.2 Grouping of Animals: The desirable rats were divided into 3 groups randomly, respectively named […]Model control group, □(R)-salvianolic acid T lyophilized powder low-dose group; □(R)-salvianolic acid T lyophilized powder high-dose group.
3. Experimental Methods: SD rats, in body-weight of 220-250 g, half male and half female, were randomly divided into groups, 10 animals in each group. The rats in the treatment groups were drenched with aqueous suspensions of different samples each day, while the rats in the model control group were drenched with equal volume of normal saline. All animals were consecutively administered for 7 days. 40 min after final administration, the rats were anesthetized and connected with devices to record lead II normal ECG. The pituitrin (Pit) was injected at a constant speed in the dosage of 1 U/kg body-weight via vena caudalis within about 10 s. ECG changes were recorded at 0 s, 5 s, 10 s, 15 s, 30 s, 45 s, 1 min, 2 min, 3 min, 4 min, 5 min, 10 min and 15 min after administration. Differences between pre injection and post injection of Pit of each group as well as between the treatment group and the model control group were compared to analyze changes of J point and T wave, and the data were analyzed by t-test.

[1] = high-dose group (10 mg/kg), 0 s after pituitrin
[2] = high-dose group (10 mg/kg), 15 s after pituitrin
[3] = high-dose group (10 mg/kg), 30 s after pituitrin
[4] = high-dose group (10 mg/kg), 45 s after pituitrin
[5] = high-dose group (10 mg/kg), 1 min after pituitrin
[6] = high-dose group (10 mg/kg), 5 min after pituitrin
[7] = high-dose group (10 mg/kg), 10 min after pituitrin
[8] = high-dose group (10 mg/kg, drenched 7 days), normal ECG before pituitrin
[9] = low-dose group (5.0 mg/kg), 0 s after pituitrin
[10] = low-dose group (5.0 mg/kg), 15 s after pituitrin
[11] = low-dose group (5.0 mg/kg), 30 s after pituitrin
[12] = low-dose group (5.0 mg/kg), 45 s after pituitrin
[13] = low-dose group (5.0 mg/kg), 1 min after pituitrin
[14] = low-dose group (5.0 mg/kg), 5 min after pituitrin
[15] = low-dose group (5.0 mg/kg), 10 min after pituitrin
[16] = low-dose group (5.0 mg/kg, drenched 7 days), normal ECG before pituitrin

Question: What does the source list for `O=C(/C=C/c1ccc(O)c(O)c1/C(=C\c1ccc(O)c(O)c1)C(=O)O)O[C@H](Cc1ccc(O)c(O)c1)C(=O)O` [(R)-salvianolic acid T]?
Answer: effect of anti-acute myocardiac ischemia (10.0 mg/kg): had effect of anti-acute myocardiac ischemia; J point [1]: −0.040 ± 0.039; T wave [1]: 0.128 ± 0.106; J point [2]: −0.069 ± 0.035; T wave [2]: 0.150 ± 0.101; J point [3]: −0.058 ± 0.035; T wave [3]: 0.100 ± 0.095; J point [4]: −0.052 ± 0.031; T wave [4]: 0.134 ± 0.105; J point [5]: −0.016 ± 0.037; T wave [5]: 0.145 ± 0.099; J point [6]: −0.058 ± 0.049; T wave [6]: 0.127 ± 0.104; J point [7]: -0.061 ± 0.049; T wave [7]: 0.150 ± 0.102; J point [8]: −0.049 ± 0.037; T wave [8]: 0.099 ± 0.073; J point [9]: −0.040 ± 0.027; T wave [9]: 0.134 ± 0.104; J point [10]: 0.023 ± 0.039; T wave [10]: 0.211 ± 0.109; J point [11]: −0.052 ± 0.022; T wave [11]: 0.189 ± 0.120; J point [12]: −0.030 ± 0.041; T wave [12]: 0.176 ± 0.137; J point [13]: −0.016 ± 0.032; T wave [13]: 0.151 ± 0.097; J point [14]: −0.034 ± 0.052; T wave [14]: 0.121 ± 0.101; J point [15]: −0.025 ± 0.051; T wave [15]: 0.142 ± 0.099; J point [16]: −0.054 ± 0.046; T wave [16]: 0.101 ± 0.069
